Paper PMC4038399, “Experimental validation of [sequence]^comb virtual ligand screening results for eight proteins yields novel nanomolar and micromolar binders” (Journal of Cheminformatics, 2014)
pKd: −log10 of the molar value. In brackets after ≈: the same amount, converted by molar mass. Read-outs that look alike come from different tables or passages of the source.

Key:
[1] = test system: vancomycin-resistant E. faecium (ATCC700221) (VREF); assay: Antimicrobial assay (MIC); type: cell-based
Protocol: (§1) Antimicrobial and anti-cancer tests were performed as in [80].

[2] = test system: HCT-116 colon carcinoma cell line; assay: Cytotoxic assay on cancer cell line; type: cell-based
Protocol: as §1

[3] = target: Catalytic subunit of cAMP-dependent protein kinase (cDPK) (Homo sapiens, UniProt P17612); assay: Thermal shift (thermal melt) assay, Sypro orange; type: binding, H. sapiens; settings: for pKd: approximate, computed from the thermal shift
Protocol: (§2) High throughput thermal shift assays were carried out following established guidelines (Additional file 1: Table S1). Protein melting curves were obtained from samples aliquoted in 96-well plates using a RealPlex quantitative PCR instrument from Eppendorf (Eppendorf, NY, USA), with Sypro orange dye from Invitrogen as the fluorescent probe. A uniform final concentration of 5 X (supplied as a 5000 X stock solution) was used in all experiments. The dye was excited at 465 nm and emission recorded at 580 nm using the instrument’s filters. A heating ramp of 1°C/min from 25°C to 74°C was used, and one data point acquired for each degree increment. For standardization, different buffers and pH were checked. Thereafter, 100 mM HEPES pH 7.3 and 150 mM NaCl were used in all unfolding experiments. The volume of each reaction was 20 μl, and appropriate dye and protein controls were included. All experiments were done with a minimum of two replicates, with the mean value considered for further analysis. Several drugs/small molecules interact with Sypro orange and lead to aberrant signal enhancements. An additional control to rule out drug-dye interaction was carried out with all the constituents kept constant except for the protein of interest. The protein/protein-drug curves were reported after subtracting the respective dye alone/drug-dye curves.
(§3) Each melting curve was assigned a quality score (Q), the ratio of the melting-associated increase in fluorescence (ΔFmelt) to the total fluorescence range (ΔFtotal). Q = 1 is a high-quality curve, while Q = 0 indicates no thermal transition. Though an arbitrary Q value cutoff was not applied to judge curve quality, the curves were manually curated with Q values reported. […] These were ignored (see Table 1).
(§4) Subsequent to standardization, (see SI Methods), the validity of the top 1% of […]^comb’s predictions on the test set of eight diverse proteins was examined. To be conservative, we focused only on those protein/ligand pairs showing single sigmoidal thermal transition curves. The fit to Boltzmann’s equation (Eq. 1) was employed to estimate the melting temperature from the observed intensity, I.
(§5) (4) I=Imin+Imax-Imin/1+e^Tm-T/a
(§6) Imin and Imax are the minimum and maximum intensities; a denotes the slope of the curve at the transition midpoint temperate, Tm. To estimate thermodynamic parameters, both van’t Hoff and Gibbs-Helmholtz analyses were done. To estimate the approximate ligand-binding affinity at Tm, Eq. (2) from reference was used with slight modifications; ΔCp is ignored.
(§7) (5) KLTm=exp-ΔH/R1/Tm-1/To/L
(§8) KL(Tm) is the ligand association constant and [L] is the free ligand concentration at Tm ([LTm] ~ [L]total, when [L]total > > the total concentration of protein. KD is the inverse of KL(Tm).
(§9) Thermal unfolding of the eight benchmark proteins was carried out in a 20 μl reaction mix with 100 mM HEPES pH 7.3, 150 mM NaCl, 5 X Sypro orange dye, 10 μM protein and 1 mM of all the predicted ligands.

[4] = target: Nucleosome assembly protein 1 (NAP1) (Plasmodium knowlesi, UniProt A0A384KYS3); assay: Thermal shift (thermal melt) assay, Sypro orange; type: binding, P. knowlesi; settings: for pKd: approximate, computed from the thermal shift
Chain of Nucleosome assembly protein 1 (NAP1) (A0A384KYS3 entry or part of it): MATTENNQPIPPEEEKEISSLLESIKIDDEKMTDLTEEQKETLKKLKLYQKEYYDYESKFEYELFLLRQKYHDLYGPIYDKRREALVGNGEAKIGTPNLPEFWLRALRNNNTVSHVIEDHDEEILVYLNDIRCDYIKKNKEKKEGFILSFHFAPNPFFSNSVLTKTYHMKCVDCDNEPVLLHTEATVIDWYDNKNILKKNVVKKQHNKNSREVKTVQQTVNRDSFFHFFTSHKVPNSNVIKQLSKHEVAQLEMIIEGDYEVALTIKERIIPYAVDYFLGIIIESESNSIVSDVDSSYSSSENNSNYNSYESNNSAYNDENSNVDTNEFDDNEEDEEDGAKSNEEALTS
Protocol: as §2, §3, §4, §5, §6, §7, §8, §9

[5] = target: T1, Tryptophanyl tRNA synthetase (TrpRS) (Homo sapiens, UniProt P23381); assay: Thermal shift (thermal melt) assay, Sypro orange; type: binding, H. sapiens; settings: for ΔTm: in °C (unit assumed); for Q (quality score): ratio ΔFmelt/ΔFtotal
T1 sequence (P23381 1-471): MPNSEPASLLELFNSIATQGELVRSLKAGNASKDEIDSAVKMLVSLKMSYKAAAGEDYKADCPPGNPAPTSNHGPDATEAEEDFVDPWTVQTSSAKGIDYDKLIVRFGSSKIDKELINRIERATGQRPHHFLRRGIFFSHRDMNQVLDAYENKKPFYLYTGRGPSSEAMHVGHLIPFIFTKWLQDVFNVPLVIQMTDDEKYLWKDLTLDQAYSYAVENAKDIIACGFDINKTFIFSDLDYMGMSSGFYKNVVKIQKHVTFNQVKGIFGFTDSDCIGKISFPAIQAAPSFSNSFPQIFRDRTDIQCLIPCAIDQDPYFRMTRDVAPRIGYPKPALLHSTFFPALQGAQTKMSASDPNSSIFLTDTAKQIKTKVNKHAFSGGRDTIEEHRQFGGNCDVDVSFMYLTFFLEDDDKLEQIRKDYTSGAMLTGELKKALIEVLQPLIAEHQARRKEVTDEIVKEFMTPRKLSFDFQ
Protocol: as §2, with “The dye was excited at 465 nm and emission recorded at 580 nm using the instrument’s filters. A heating ramp of 1°C/min from 25°C to 74°C was used, and one data point acquired for each degree increment.” left out
(§10) Each melting curve was assigned a quality score (Q), the ratio of the melting-associated increase in fluorescence (ΔFmelt) to the total fluorescence range (ΔFtotal). Q = 1 is a high-quality curve, while Q = 0 indicates no thermal transition. Though an arbitrary Q value cutoff was not applied to judge curve quality, the curves were manually curated with Q values reported.
as §4, §5, §6, §7, §8, §9

[6] = target: Ubiquitin conjugating enzyme (UCE) (Plasmodium falciparum, UniProt Q8I607); assay: Thermal shift (thermal melt) assay, Sypro orange; type: binding, P. falciparum; settings: for pKd: approximate, computed from the thermal shift, read-out: KD (Approx)
Chain of Ubiquitin conjugating enzyme (UCE) (Q8I607 1-147): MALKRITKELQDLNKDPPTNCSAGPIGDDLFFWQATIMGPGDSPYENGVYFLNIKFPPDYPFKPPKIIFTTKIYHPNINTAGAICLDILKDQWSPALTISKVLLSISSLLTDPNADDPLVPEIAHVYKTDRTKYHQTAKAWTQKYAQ
Protocol: as §2, §3, §4, §5, §6, §7, §8, §9

[7] = target: E. coli dihydrofolate reductase (DHFR) (Escherichia coli, UniProt P0ABQ4); assay: biochemical; type: binding; settings: Table S3
Chain of E. coli dihydrofolate reductase (DHFR) (P0ABQ4 whole entry): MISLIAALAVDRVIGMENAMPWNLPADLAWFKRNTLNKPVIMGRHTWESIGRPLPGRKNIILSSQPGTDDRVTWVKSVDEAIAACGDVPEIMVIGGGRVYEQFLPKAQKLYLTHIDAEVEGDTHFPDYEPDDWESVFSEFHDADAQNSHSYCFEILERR
Protocol: as §2, with “The dye was excited at 465 nm and emission recorded at 580 nm using the instrument’s filters. A heating ramp of 1°C/min from 25°C to 74°C was used, and one data point acquired for each degree increment.” left out
as §10, §4, §5, §6, §7, §8, §9

[8] = target: T2, 1000006: catalytic domain of protein tyrosine phosphatase (2G59) (Homo sapiens, UniProt Q16827); assay: Thermal shift (thermal melt) assay, Sypro orange; type: binding, H. sapiens; settings: Table S4, protein 1000006
T2 construct: the catalytic domain of PTP from H. sapiens (PDB ID: 2G59) (1000006); New York structural genomics consortium (gift)
T2 sequence (Q16827 938-1195 limits assumed): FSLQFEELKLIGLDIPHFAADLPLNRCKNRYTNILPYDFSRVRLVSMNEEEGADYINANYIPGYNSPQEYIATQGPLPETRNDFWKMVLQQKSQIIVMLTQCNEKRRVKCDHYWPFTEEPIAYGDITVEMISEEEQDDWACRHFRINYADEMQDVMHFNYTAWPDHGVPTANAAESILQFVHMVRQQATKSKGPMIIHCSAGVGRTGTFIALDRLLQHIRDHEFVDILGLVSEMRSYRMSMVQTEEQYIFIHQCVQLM
Protocol: as §2, §3, §4, §5, §6, §7, §8, §9

[9] = thermal shift, 1 mM ligand, 10 μM protein
[10] = Table S4, TrpRS, computed from the thermal shifts obtained, read-out: KD (Approx)
[11] = approximate, computed from the thermal shift, read-out: KD
[12] = computed from the thermal shifts obtained, read-out: KD (Approx)

CN(Cc1cnc2nc(N)nc(N)c2n1)c1ccc(C(=O)N[C@@H](CCC(=O)O)C(=O)O)cc1 [NSC 740, methotrexate]
MIC ([1]; Enterococcus faecium, ATCC700221): 500 µg/mL (≈ 1100 µM) | VREF (MIC) ([1]; Table S3): 500 µg/mL | IC50 ([2]; Homo sapiens, HCT-116, inhibitory concentration for 50% growth inhibition, read-out: HCT-116 (IC-50)): 0.048 µg/mL (≈ 0.106 µM)

COc1ccc(-c2cc3ccccc3[nH]2)cc1 [NSC 27032]
Q (quality score of melting curve, ΔFmelt/ΔFtotal) [3]: 1.0 | pKd ([3]; read-out: KD): 4.31 | pKd ([3]; read-out: KD (Approx)): 4.31 | ΔTm [3, 9]: 2.95 °C

O=C1C[C@@H](c2ccc(O)cc2)Oc2cc(O)cc(O)c21 [NSC 34875]
Q (quality score of melting curve, ΔFmelt/ΔFtotal) [4]: 0.6 | ΔTm ([4]; Table S5, 1 mM ligand): 1.74 °C | pKd ([4]; read-out: KD (Approx)): 3.65

O=C1c2cc(O)c(O)cc2OC(c2ccc(O)c(O)c2)C1O (stereo not drawn) [NSC 36398]
Q (quality score of melting curve, ΔFmelt/ΔFtotal) [4]: 0.2 | pKd ([4]; read-out: KD): 3.74 | pKd ([4]; read-out: KD (Approx)): 3.74 | ΔTm [4, 9]: 2.21 °C

O=C(Nc1cccc([N+](=O)[O-])c1)c1cc2ccccc2cc1O [NSC 37168]
pKd [5, 10]: ~5.04 | ΔTm ([5]; Table S4, TrpRS): 9.9 | Q (quality score) ([5]; Table S4, TrpRS): 0.4 | pKd [5, 11]: ~5.04 | HCT-116 (IC-50) ([2]; inhibitory concentration for 50% growth inhibition): 1.34 µg/mL

O=C(Nc1ccc(Cl)cc1)c1cc2c(cc1O)[nH]c1ccccc12 [NSC 50651]
Q (quality score of melting curve, ΔFmelt/ΔFtotal) [6]: 0.13 | ΔTm ([6]; Table S5, 1 mM ligand): 2.25 °C | pKd ([6]; listed as 50651): 3.71 | pKd ([6]; listed as NSC50651): 3.71

CCOc1ccc(NC(=O)c2cc3ccccc3cc2O)cc1 [NSC 50690]
pKd [7, 12]: ~3.33 | Q (quality score) ([7]; ratio ΔFmelt/ΔFtotal of the melting curve): 0.3 | ΔTm ([7]; thermal shift, in °C (unit assumed)): 0.23 | pKd [5, 10]: ~5.11 | ΔTm ([5]; Table S4, TrpRS): 10.27 | Q (quality score) ([5]; Table S4, TrpRS): 0.8 | pKd [5, 11]: 5.11 | pKd [8, 12]: ~4.29 | ΔTm ([8]; in °C (unit assumed)): 4.59 | Q (quality score) ([8]; ratio ΔFmelt/ΔFtotal): 0.8
